In patent US8283299B2, “Skin and hand cleaning compositions with hydrophilic emollients” (Evonik Stockhausen GmbH, priority 2007, dated 2012):

Columns and labels:
[1] = cited from earlier work
[2] = Determination of the HLB value; assay type: physicochemical; conditions: 5% strength dispersion/solution in water, visual comparison with emulsifiers of known HLB
Experimental: The HLB value is determined by preparing a 5% strength dispersion/solution of the substance to be tested, here the hydrophilic emollient, in water, and determining the solubility in water. The assessment takes place visually: clouding, solubility, degree of dispersion. The HLB value is ascertained through comparison with solutions of emulsifiers whose HLB value is known.

Substance | HLB value according to manufacturer [1] | HLB value (ascertained) [2]
PEG-7 glyceryl cocoate [Glycerox HE] | HLB: 11 | 
polyglyceryl-3 caprate [TEGOSOFT PC 31] |  | HLB: 14
polyglyceryl-4 caprate [TEGOSOFT PC 41] |  | HLB: 16
